Tests used:
[1] = test system: aflatoxines production; test: microbe, parasite or virus in culture; format: cell-based, Aspergillus parasiticus; conditions: 50 μM
[2] = test system: Pyrenophora teres; test: In vivo preventive test on Pyrenophora teres (barley); conditions: 500 ppm of active ingredient, evaluated 7-9 days after inoculation
Excerpt: One day after this treatment, the plants are inoculated with an aqueous spore suspension of Pyrenophora teres.

[3] = test system: Alternaria solani; test: In vivo preventive test on Alternaria solani (tomato); conditions: 500 ppm of active ingredient, evaluated 7 days after inoculation
Excerpt: One day after this treatment, the plants are inoculated with an aqueous spore suspension of Alternaria solani.

[4] = test system: Fusarium graminearum; test: microbe, parasite or virus in culture; format: cell-based; conditions: 50 μM
[5] = logP by HPLC on reversed-phase column (C 18), EEC Directive 79/831 Annex V.A8; format: physicochemical
Procedure: In table 1, the logP values were determined in accordance with EEC Directive 79/831 Annex V.A8 by HPLC (High Performance Liquid Chromatography) on a reversed-phase column (C 18), using the method described below: Temperature: 40° C.; […]

Row | SMILES | % Inhibition of Aflatoxin at 50 μM [1] | Efficacy [2] | Efficacy [3] | % Inhibition of fungal growth at 50 μM [4] | logP [5]
1 | CC(CNC(=O)c1c(C(F)F)nn(C)c1F)c1cc(Cl)cc(Cl)c1 (stereo not drawn) [Example 111] | 100% | 100% | 95% | 96% | 3.55
2 | Cc1c(CCNC(=O)c2c(C(F)F)nn(C)c2F)sc2ccccc12 [Example 171] | 100% | 100% | 100% | 93% | 3.27
3 | Cn1nc(C(F)F)c(C(=O)NCCc2cccc(Cl)c2)c1Cl [Example 49] | 100% | 94% | 100% | 91% | 2.92
4 | CN(CCc1ccc(C(C)(C)C)cc1)C(=O)c1c(C(F)F)nn(C)c1F [Example 138] | 100% | 95% | 100% | 80% | 3.78
5 | CC(CNC(=O)c1c(C(F)F)nn(C)c1Cl)c1ccccc1Cl (stereo not drawn) [Example 40] | 99% | 94% | 100% | 78% | 3.15
6 | Cc1ccsc1CCNC(=O)c1c(C(F)F)nn(C)c1F [Example 164] | 100% | 100% | 95% | 95% | 2.49
7 | Cn1nc(C(F)F)c(C(=O)NCCc2c(Cl)cccc2Cl)c1Cl [Example 118] | 100% | 94% | 90% | 81% | 3.21
8 | CCC(CNC(=O)c1c(C(F)F)nn(C)c1F)c1ncc(C(F)(F)F)cc1Cl (stereo not drawn) [Example 192] | 100% | 100% | 100% | 100% | 3.52
9 | CC(CNC(=O)c1c(C(F)F)nn(C)c1Cl)c1cc(Cl)ccc1Cl (stereo not drawn) [Example 98] | 100% | 94% | 95% | 95% | 3.55
10 | CC(CNC(=O)c1c(C(F)F)nn(C)c1F)c1ccc(C(F)(F)F)cc1 (stereo not drawn) [Example 127] | 100% | 100% | 100% | 100% | 3.25
11 | CC(CNC(=O)c1c(C(F)F)nn(C)c1Cl)c1ccc(Cl)cc1Cl (stereo not drawn) [Example 85] | 100% | 100% | 100% | 100% | 3.67
12 | CN(CC(=O)c1ccc(Cl)cc1)C(=O)c1c(C(F)F)nn(C)c1F [Example 61] | 100% | – | 90% | 84% | 2.53
13 | CC(CN(C)C(=O)c1c(C(F)F)nn(C)c1Cl)c1ccncc1 (stereo not drawn) [Example 207] | 99% | – | – | 37% | 1.74
14 | Cn1nc(C(F)F)c(C(=O)NCCc2ccsc2Br)c1F [Example 166] | 100% | – | – | 97% | 2.64
15 | CN(CCc1ccc(C(C)(C)C)cc1)C(=O)c1c(C(F)F)nn(C)c1Cl [Example 139] | – | 90% | 90% | – | 3.96
16 | Cn1nc(C(F)F)c(C(=O)NCCc2cccc(Oc3ccccc3)c2)c1F [Example 143] | – | 89% | 95% | – | 3.37
17 | C#CCOc1cc(C(OC)C(C)NC(=O)c2c(C(F)F)nn(C)c2Cl)ccc1OC (stereo not drawn) [Example 159] | 98% | – | – | 77% | 2.76
18 | CC(Cc1ccco1)NC(=O)c1c(C(F)F)nn(C)c1Cl (stereo not drawn) [Example 174] | 89% | – | – | 76% | 2.37
19 | Cn1nc(C(F)F)c(C(=O)NCCc2csc3c2CCCC3)c1F [Example 170] | 100% | – | – | 95% | 3.31

Row | SMILES | % Inhibition of Aflatoxin at 50 μM [1] | Efficacy [2] | Efficacy [3] | % Inhibition of fungal growth at 50 μM [4] | logP [5]
20 | COCCN(CCc1ccncc1)C(=O)c1c(C(F)F)nn(C)c1Cl [Example 202] | 99% | – | – | 81% | 1.69
21 | Cc1scc(CCNC(=O)c2c(C(F)F)nn(C)c2Cl)c1C [Example 168] | 100% | – | – | 97% | 3.02
22 | CC(Cc1c(F)cccc1F)N(C(=O)c1c(C(F)F)nn(C)c1Cl)C1CC1 (stereo not drawn) [Example 27] | – | 95% | 95% | – | 3.57
23 | Cn1nc(C(F)F)c(C(=O)NC(C)(C)Cc2cccc(Oc3ccccc3)c2)c1F [Example 142] | – | 78% | 90% | – | 4.09
24 | Cn1nc(C(F)F)c(C(=O)NCC(C)(C)c2cc(Cl)cc(Cl)c2)c1F [Example 113] | – | 90% | 80% | – | 3.87
25 | CC(Cc1ccco1)NC(=O)c1c(C(F)F)nn(C)c1F (stereo not drawn) [Example 173] | 100% | – | – | 83% | 2.20
26 | CN(CCc1ccccc1)C(=O)c1c(C(F)F)nn(C)c1Cl [Example 9] | – | 95% | 95% | – | 2.60
27 | Cn1nc(C(F)F)c(C(=O)NCCc2ccccc2C(F)(F)F)c1Cl [Example 122] | – | 94% | 95% | – | 3.11
28 | CC(Cc1c(Cl)cccc1Cl)N(C(=O)c1c(C(F)F)nn(C)c1Cl)C1CC1 (stereo not drawn) [Example 116] | – | 100% | 100% | – | 4.29
29 | Cn1nc(C(F)F)c(C(=S)NC[Si](C)(C)c2ccccc2Cl)c1F [Example 234] | – | 100% | 70% | – | 4.11
30 | CCN(C(=O)c1c(C(F)F)nn(C)c1F)C(C)C(=O)c1ccccc1 (stereo not drawn) [Example 17] | 100% | – | 80% | 83% | 2.59
31 | Cn1nc(C(F)F)c(C(=O)NCC(C)(C)c2ccccc2Cl)c1F [Example 45] | – | 100% | 90% | – | 3.27
32 | Cn1nc(C(F)F)c(C(=O)NC2CCCCC2c2ccccc2)c1F (stereo not drawn) [Example 212] | 100% | – | 89% | 99% | 3.13
33 | Cn1nc(C(F)F)c(C(=O)NCC(C)(C)c2cccc(Cl)c2)c1F [Example 53] | – | 94% | 70% | – | 3.31
34 | CC(Cc1cccc(Cl)c1)NC(=O)c1c(C(F)F)nn(C)c1Cl (stereo not drawn) [Example 48] | – | 100% | 95% | – | 3.17
35 | Cn1nc(C(F)F)c(C(=O)NCCc2ccc(Oc3ccccc3)cc2)c1Cl [Example 155] | – | 100% | 95% | – | 3.60
36 | CCN(CCc1ccc(Cl)cc1)C(=O)c1c(C(F)F)nn(C)c1Cl [Example 57] | – | 70% | 80% | – | 3.35
37 | Cn1nc(C(F)F)c(C(=O)NC2CC2c2ccc(F)cc2)c1F (stereo not drawn) [Example 220] | 100% | 100% | – | 81% | 2.59
38 | COc1ccc(CCN(C)C(=O)c2c(C(F)F)nn(C)c2F)cc1OC [Example 129] | 90% | 90% | – | 70% | 2.04

— patent US9232799B2, “N-[(het)arylethyl)] pyrazole(thio)carboxamides and their heterosubstituted analogues” (BAYER INTELLECTUAL PROPERTY GMBH, priority 2010, dated 2016)
